Results: ChEMBL document CHEMBL1201862, “PubChem BioAssay data set” (2004)
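Values below derive from 48-hour exposures of cells grown in 96-well plates, with endpoints linearly interpolated between the two concentrations bracketing the appropriate inhibition level. GI50 marks 50% less growth.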 The source made the active and inactive calls. Cut-off read from the data, not from the text of the source: active = GI50 up to about 1.1 µM and inactive = higher. Peptide text beside a SMILES is read from it. * marks the point of attachment. Cbz = O=C(OCc1ccccc1)*; CH2Cl = ClC*

Experiments:
Assay in all cases: NCI anticancer screen, dose series, 48 h
NCI-H226 = system: NCI-H226
A498 = system: A498
OVCAR-5 = system: OVCAR-5
HCT-15 = system: HCT-15
SF-295 = system: SF-295
NCI/ADR-RES = system: NCI/ADR-RES
HT-29 = system: HT-29
KM12 = system: KM12
NCI-H23 = system: NCI-H23
Hs-578T = system: Hs-578T
OVCAR-3 = system: OVCAR-3
HL-60 = system: HL-60
SNB-75 = system: SNB-75
RPMI-8226 = system: RPMI-8226
M14 = system: M14
OVCAR-8 = system: OVCAR-8
EKVX = system: EKVX
HCT-116 = system: HCT-116
SK-MEL-5 = system: SK-MEL-5
MDA-MB-435 = system: MDA-MB-435

Compound | GI50 (NCI-H226) | GI50 (A498) | GI50 (OVCAR-5) | GI50 (HCT-15) | GI50 (SF-295) | GI50 (NCI/ADR-RES) | GI50 (HT-29) | GI50 (KM12) | GI50 (NCI-H23) | GI50 (Hs-578T) | GI50 (OVCAR-3) | GI50 (HL-60) | GI50 (SNB-75) | GI50 (RPMI-8226) | GI50 (M14) | GI50 (OVCAR-8) | GI50 (EKVX) | GI50 (HCT-116) | GI50 (SK-MEL-5) | GI50 (MDA-MB-435)
O=C(N/N=C\c1ccc([N+](=O)[O-])cc1)Nc1cccc2ccccc12 | 17.7 µM (inactive) | 14 µM (inactive) | > 100 µM (inactive) | > 50.5 µM | 7.28 µM (inactive) | 19.1 µM (inactive) | > 100 µM (inactive) | > 29.7 µM (inactive) | 18.8 µM (inactive) | 3.99 µM (inactive) | > 37.8 µM (inactive) | > 31.6 µM (inactive) | 3.23 µM (inactive) | > 100 µM (inactive) | 58.9 µM (inactive) | 6.03 µM (inactive) | 29.1 µM (inactive) | 28.5 µM (inactive) | 31.3 µM (inactive) | > 100 µM (inactive)
CCOC(=O)NC(Nc1ccc(F)cc1)(C(=O)OCC)C(F)(F)F (stereo not given) | > 100 µM (inactive) | > 100 µM (inactive) | > 100 µM (inactive) | 29.6 µM | 8.38 µM (inactive) | 12 µM (inactive) | > 100 µM (inactive) | 0.556 µM (active) | > 100 µM (inactive) | > 100 µM (inactive) | > 100 µM (inactive) | 0.526 µM (active) | > 100 µM (inactive) | 2.65 µM (inactive) | 0.156 µM (active) | 7.06 µM (inactive) | > 100 µM (inactive) | 3.12 µM (inactive) | 0.192 µM (active) | 0.268 µM (active)
CC(C)CC(NC(=O)OCc1ccccc1)C(=O)NC(Cc1ccccc1)C(=O)CCl (stereo not drawn) (Cbz-Leu-Phe-CH2Cl; configuration not given here) | 1.91 µM (inactive) | 23.6 µM (inactive) | 3.71 µM (inactive) | 1.66 µM | 17.5 µM (inactive) | 2.44 µM (inactive) | 2.68 µM (inactive) | 9.77 µM (inactive) | 2.03 µM (inactive) | 4.62 µM (inactive) | 3.72 µM (inactive) | 1.33 µM (inactive) | 4.78 µM (inactive) | 1.61 µM (inactive) | 1.79 µM (inactive) | 2.08 µM (inactive) | 18.6 µM (inactive) | 1.68 µM (inactive) | 1.82 µM (inactive) | 2.34 µM (inactive)
Cc1ccc(C2NC(=O)c3ccccc3N2)c(C)c1 (stereo not given) | 6.1 µM (inactive) | 5.04 µM (inactive) | 8.43 µM (inactive) | 1.08 µM | 2.15 µM (inactive) | 1.34 µM (inactive) | 2.19 µM (inactive) | 3.21 µM (inactive) | 7.14 µM (inactive) | 2.4 µM (inactive) | 1.16 µM (inactive) | 0.453 µM (active) | 1.92 µM (inactive) | 0.807 µM (active) | 2.16 µM (inactive) | 5.28 µM (inactive) | 8.17 µM (inactive) | 2.39 µM (inactive) | 0.951 µM (active) | 0.191 µM (active)
COc1ccc(C(OC(C)=O)C2C(=C(C#N)C#N)c3ccccc3C2=C(C#N)C#N)cc1 (stereo not given) | 38.6 µM (inactive) | 24.1 µM (inactive) | 17.2 µM (inactive) | 31.2 µM | 19.9 µM (inactive) | 50.1 µM (inactive) | 29.9 µM (inactive) | 43.7 µM (inactive) | 25.9 µM (inactive) | 35.6 µM (inactive) | 21.6 µM (inactive) | 18.5 µM (inactive) | 36.1 µM (inactive) | 25.5 µM (inactive) | 40.7 µM (inactive) | 60.7 µM (inactive) | 39.4 µM (inactive) | 35.1 µM (inactive) | 48 µM (inactive) | 36.7 µM (inactive)
O=C1C(Br)=CC2(C=C1Br)CCNC1=C2C(=O)c2[nH]cnc2C1=O | 20.4 µM (inactive) | 19 µM (inactive) | 15.9 µM (inactive) | 15.6 µM | 16.2 µM (inactive) | 21.1 µM (inactive) | 15.5 µM (inactive) | 16.9 µM (inactive) | 12.6 µM (inactive) | 26.3 µM (inactive) | 15.7 µM (inactive) | 4.79 µM (inactive) | 15.6 µM (inactive) | 14.5 µM (inactive) | 16.9 µM (inactive) | 16.8 µM (inactive) | 18.1 µM (inactive) | 14.7 µM (inactive) | 11.2 µM (inactive) | 11 µM (inactive)
